Measurements from paper PMC12197871 (Protein Science : A Publication of the Protein Society, 2025).
“Also recorded” adds a separate entry of the source.

How the values were obtained:
GsLDH [1] = target: T1, GsLDH (Geobacillus stearothermophilus, UniProt P00344); test: GsLDH kinetic studies; type: biochemical; settings: WT GsLDH
GsLDH [2] = target: T1, GsLDH; test: Isothermal titration calorimetry of cofactor binding to GsLDH; settings: for Kd: K d; for Kd / K B × 10^5 / TΔS B / ΔG B / ΔH B / binding stoichiometry n: presence of FBP; for Kd / K B × 10^5 / TΔS B / ΔG B / ΔH B: 30°C; for enthalpy change on titration of the enzyme: absence of FBP

T1 sequence (P00344 whole entry): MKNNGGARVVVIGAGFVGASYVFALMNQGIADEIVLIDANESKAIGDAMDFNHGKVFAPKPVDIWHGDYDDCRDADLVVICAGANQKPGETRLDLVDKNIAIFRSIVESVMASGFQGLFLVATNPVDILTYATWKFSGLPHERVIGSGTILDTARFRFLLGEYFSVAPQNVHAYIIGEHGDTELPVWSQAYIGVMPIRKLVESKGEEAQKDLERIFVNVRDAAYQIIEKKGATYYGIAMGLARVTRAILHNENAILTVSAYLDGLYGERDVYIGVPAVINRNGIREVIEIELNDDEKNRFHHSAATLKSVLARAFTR

fold decrease of K m for pyruvate in the presence of FBP (GsLDH [1]) | fold improvement of catalytic efficiency (k cat/K m) in the presence of FBP (GsLDH [1]) | Kd (GsLDH [2]; WT with pyruvate) | Kd (GsLDH [2]; WT) | K B × 10^5 (GsLDH [2]; WT with pyruvate) | TΔS B (GsLDH [2]; WT with pyruvate) | ΔG B (GsLDH [2]; WT with pyruvate) | ΔH B (GsLDH [2]; WT with pyruvate) | K B × 10^5 (GsLDH [2]; WT) | TΔS B (GsLDH [2]; WT) | ΔG B (GsLDH [2]; WT) | ΔH B (GsLDH [2]; WT) | binding stoichiometry n (GsLDH [2]) | Compound | enthalpy change on titration of the enzyme (GsLDH [2])
5.6 fold | 3.3 fold |  |  |  |  |  |  |  |  |  |  |  | O=C(COP(=O)(O)O)[C@@H](O)[C@H](O)[C@H](O)COP(=O)(O)O [FBP, fructose 1,6‐bisphosphate] | 
 |  | 1.6 µM | 3 µM | 6 ± 2 10^5 M^−1 | -37.0 kcal/mol | -8.0 kcal/mol | -45 ± 2 kcal/mol | 3 ± 2 10^5 M^−1 | -134.4 kcal/mol | -7.6 kcal/mol | -142 ± 20 kcal/mol | ~1 | NC(=O)c1ccc[n+]([C@@H]2O[C@H](COP(=O)([O-])OP(=O)(O)OC[C@H]3O[C@@H](n4cnc5c(N)ncnc54)[C@H](O)[C@@H]3O)[C@@H](O)[C@H]2O)c1 [NAD^+, oxidized nicotinamide adenine dinucleotide] | did not result in significant enthalpy changes
 |  |  |  |  |  |  |  | 8 ± 2 10^5 M^−1 | -50.8 kcal/mol | -8.2 kcal/mol | -59 ± 4 kcal/mol | ~1 | reduced nicotinamide adenine dinucleotide [NADH] | did not result in significant enthalpy changes; also recorded: too low to be detected
